Reference: US20060035904A1, “Antineoplastic combinations” (Wyeth, priority 2001, published 2006)
Counter-ions that a name gives are not always drawn.

Assays:
[1] = tested on: human tumor xenografts of diverse histological types; conditions: cited from earlier work
[2] = tested on: histologically diverse tumor cells; conditions: cited from earlier work
[3] = tested on: breast cancer lines; conditions: one of two lines studied; cited from earlier work
[4] = tested on: human pancreatic tumors; conditions: several tumors, nude mice; cited from earlier work
[5] = tested on: human glioblastoma cell line; conditions: in vitro; cited from earlier work
[6] = tested on: orthotopic glioma; conditions: nude mice; cited from earlier work
[7] = tested on: human colon (GC3) xenograft; assay: human colon (GC3) mouse xenograft test procedure; assay type: in vivo, mice; conditions: gemcitabine on days 1, 4, 8 in cycle 1 only; CCI-779 daily x5 for 2 consecutive weeks every 21 days, 3 cycles
Description: Female CBA/CaJ mice (Jackson Laboratories, Bar Harbor, Me.), 4 weeks of age, were immune-deprived by thymectomy, followed 3 weeks later by whole-body irradiation (1200 cGy) using a ^137Cs source. Mice received 3×10^6 nucleated bone marrow cells within 6-8 h of irradiation. Tumor pieces of approximately 3 mm^3 were implanted in the space of the dorsal lateral flanks of the mice to initiate tumor growth. Tumor-bearing mice were randomized into groups of seven prior to initiating therapy. Mice bearing tumors each received drug when tumors were approximately 0.20-1 cm in diameter. Tumor size was determined at 7-day intervals using digital Vernier calipers interfaced with a computer. Tumor volumes were calculated assuming tumors to be spherical using the formula [(π/6)×d^3], where d is the mean diameter. CCI-779 was given on a schedule of 5 consecutive days for 2 weeks with this cycle repeated every 21 days for 3 cycles. […] The schedule of the other chemotherapy drug for each study was as follows: Gemcitabine on days 1, 4, 8 in cycle 1 only. […] In this test procedure, CCI-779 was given daily 5 for 2 consecutive weeks every 21 days for 3 cycles and gemcitabine given on days 1, 4, and 8 in the first cycle only.

[8] = molecular target: mTOR (Homo sapiens, UniProt P42345+P62942); assay: Western blot of p70s6 kinase serine389 phosphorylation in growth factor stimulated cells; assay type: cell-based
Description: Cell lines were grown in optimal basal medium supplemented with 10% fetal bovine serum and penicillin/treptomycin. For phosphorylation studies, cells were subcultured in 6-well plates. After the cells have completely attached, they were serum-starved. Treatment with mTOR inhibitors ranged from 2 to 16 hours. After drug treatment, the cells were rinsed once with PBS (phosphate buffered saline without Mg^2+ and Ca^2+) and then lysed in 150-200 μl NuPAGE LDS sample buffer per well. The lysates were briefly sonicated and then centrifuged for 15 minutes at 14000 rpm. Lysates were stored at minus −80° C. until use.
The test procedure can also be run by incubating the cells in growth medium overnight, after they have completely attached.
1) Prepare total protein samples by placing 22.5 μl of lysate per tube and then add 2.5 μl NuPAGE sample reducing agent. Heat samples at 70° C. for 10 minutes. Electrophorese using NuPAGE gels and NuPAGE SDS buffers.
2) Transfer the gel to a nitrocellulose membrane with NuPAGE transfer buffer. The membrane is blocked for 1 hour with blocking buffer (Tris buffered saline with 0.1% Tween and 5% nonfat-milk). Rinse membranes 2× with washing buffer (Tris buffered saline with 0.1% Tween).
3) Blots/membranes are incubated with the Phospho-p70 S6 Kinase (Thr^389) primary antibody (1:1000) in blocking buffer overnight at 4° C. in a rotating platform. […]

In the case of `CO[C@H]1C[C@@H]2CC[C@@H](C)[C@@](O)(O2)C(=O)C(=O)N2CCCC[C@H]2C(=O)O[C@H]([C@H](C)C[C@@H]2CC[C@@H](OC(=O)C(C)(CO)CO)[C@H](OC)C2)CC(=O)[C@H](C)/C=C(\C)[C@@H](O)[C@@H](OC)C(=O)[C@H](C)C[C@H](C)/C=C/C=C/C=C/1C` [CCI-779, rapamycin 42-ester with 3-hydroxy-2-(hydroxymethyl)-2-methylpropionic acid], the “sensitivity of gliomas in vivo” value ([1]; gliomas) is listed as “particularly sensitive”, the “activity against human tumor xenografts” value ([1]; nude mice, diverse histological types) is listed as “has activity” and the “sensitivity of tumor cell lines in vitro” value ([2]; CNS cancer, leukemia (T-cell), breast cancer, prostate cancer and melanoma lines) is listed as “among the most sensitive”. The “growth of tumor cells in vitro” value ([2]; a number of histologically diverse tumor cells) was “inhibit the growth”, the cell cycle effect [2] was “arrested cells in the G1 phase” and the “growth of breast cancer lines in vivo” value [3] was “inhibited”. For the same molecule, the “growth of human pancreatic tumors” value [4] was “inhibited”, the “growth factor (platelet-derived)-induced stimulation” value [5] was “markedly suppressed” and the “activity in orthotopic glioma model” value [6] was “active”.
With `Nc1ccn([C@@H]2O[C@H](CO)[C@@H](O)C2(F)F)c(=O)n1` [gemcitabine, 2′-deoxy-2′,2′-difluorocytidine monohydrochloride ((beta)-isomer)] the “tumor regression in the first cycle” value [7] was “tumor regression seen in the first cycle”.
For `CO[C@H]1C[C@@H]2CC[C@@H](C)[C@@](O)(O2)C(=O)C(=O)N2CCCC[C@H]2C(=O)O[C@H]([C@H](C)C[C@@H]2CC[C@@H](O)[C@H](OC)C2)CC(=O)[C@H](C)/C=C(\C)[C@@H](O)[C@@H](OC)C(=O)[C@H](C)C[C@H](C)/C=C/C=C/C=C/1C` [rapamycin], the “phosphorylation of serine389 of p70s6 kinase” value [8] was “completely blocks”.
